Experimental findings from patent US20260317312A1, “ISOXAZOLIDINES AS RIPK1 INHIBITORS AND USE THEREOF” (GENZYME CORPORATION, priority 2023, published 2026) are described below.

Structures are written as SMILES.

Broadly, the IC50 is the concentration that gives 50% inhibition. Read a low IC50 as greater potency in that assay.

The target in test [1] is T1, hRIPK1 (aa 1-375) fusion protein (Homo sapiens, UniProt Q13546).
T1 construct: hRIPK1 (aa 1-375) fusion protein
T1 sequence (Q13546 1-375): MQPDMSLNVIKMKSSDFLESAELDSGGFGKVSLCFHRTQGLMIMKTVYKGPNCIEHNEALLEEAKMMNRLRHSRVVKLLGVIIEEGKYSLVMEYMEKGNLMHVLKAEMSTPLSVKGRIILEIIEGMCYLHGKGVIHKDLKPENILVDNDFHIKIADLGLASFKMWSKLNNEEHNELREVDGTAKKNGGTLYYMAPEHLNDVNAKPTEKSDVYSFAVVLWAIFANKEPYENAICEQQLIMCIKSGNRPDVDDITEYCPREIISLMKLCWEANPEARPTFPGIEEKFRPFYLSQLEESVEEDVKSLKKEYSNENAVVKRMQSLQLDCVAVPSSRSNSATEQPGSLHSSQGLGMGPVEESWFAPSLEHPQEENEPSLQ
The test can be described thus: Receptor-Interacting Protein Kinase 1 inhibition, ADP Glo assay (conversion of ATP to ADP due to autophosphorylation). The format is biochemical. Particulars: ATP 50 μM, 30 min preincubation, 240 min incubation, room temperature, DMSO 1%. The method in brief: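 hRIPK1 (aa 1-375) fusion protein (3.6 μg/ml final) was preincubated 30 min at rt with compound (33300-1.69 nM, 1% DMSO), then 50 μM ATP was added for 240 min at rt. ADP from autophosphorylation was measured by ADP-Glo luminescence and curves fitted by nonlinear regression.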
Background: ADP-Glo turns the ADP formed in a reaction into a luminescent signal.

Another test relates to U937 cells. The test is described as follows: Cellular assay in U937 cells to measure activity of RIPK1-inhibitors on cell death (necroptosis). The format is cell-based. Particulars: Homo sapiens, U-937, TNFα/zVAD.fmk induced cell death (necroptosis), overnight (18 to 24 hrs), 37° C., MTS readout.

Consider `N#Cc1cccc(OC[C@H]2CC[C@H](C(=O)N3OCC[C@H]3c3cncc(C#N)c3)CC2)c1` [Compound 71, trans-5-((S)-2-(4-((3-cyanophenoxy)methyl)cyclohexane-1-carbonyl)isoxazolidin-3-yl)nicotinonitrile], for which the half-maximal inhibitory concentration (IC50) in test [1] amounted to 14 nM; in the test on U937 cells, 6 nM.
On the same counts, the results for `N#Cc1cncc([C@@H]2CCON2C(=O)[C@H]2CC[C@H](COc3ccc(F)c(C#N)c3)CC2)c1` [Compound 72, trans-5-((S)-2-(4-((3-cyano-4-fluorophenoxy)methyl)cyclohexane-1-carbonyl)isoxazolidin-3-yl)nicotinonitrile] are 15 nM and 13 nM.
Turning to `N#Cc1cncc([C@@H]2CCON2C(=O)[C@H]2CC[C@H](COc3cccc(C(N)=O)c3)CC2)c1` [Compound 73, trans-3-((4-((S)-3-(5-cyanopyridin-3-yl)isoxazolidine-2-carbonyl)cyclohexyl)methoxy)benzamide], the IC50 came out at 29 nM in test [1] and 26 nM in the test with U937 cells.
The matching figures for `N#Cc1cncc([C@@H]2CCON2C(=O)[C@H]2CC[C@H](COc3ccc(F)c(C(N)=O)c3)CC2)c1` [Compound 74, trans-5-((4-((S)-3-(5-cyanopyridin-3-yl)isoxazolidine-2-carbonyl)cyclohexyl)methoxy)-2-fluorobenzamide]: 24 nM and 82 nM.
The matching figures for `N#Cc1cncc([C@@H]2CCON2C(=O)[C@H]2CC[C@H](COc3ccc(Cl)c(C(N)=O)c3)CC2)c1` [Compound 75, trans-2-chloro-5-((4-((S)-3-(5-cyanopyridin-3-yl)isoxazolidine-2-carbonyl)cyclohexyl)methoxy)benzamide]: 43 nM and 224 nM.
On the same counts, the results for `Cc1cc(C)n(-c2ccc(OC[C@H]3CC[C@H](C(=O)N4OCC[C@H]4c4cc(F)cc(C#N)c4)CC3)c(F)c2)n1` [Compound 76, trans-3-((S)-2-(4-((4-(3,5-dimethyl-1H-pyrazol-1-yl)-2-fluorophenoxy)methyl)cyclohexane-1-carbonyl)isoxazolidin-3-yl)-5-fluorobenzonitrile] are 47 nM and 47 nM.
As for `N#Cc1cc(F)cc([C@@H]2CCON2C(=O)[C@H]2CC[C@H](COc3cccc(S(N)(=O)=O)c3)CC2)c1` [Compound 77, trans-3-((4-((S)-3-(3-cyano-5-fluorophenyl)isoxazolidine-2-carbonyl)cyclohexyl)methoxy)benzenesulfonamide], the IC50 in test [1] was determined as 53 nM; in the test on U937 cells it was 48 nM.
The matching figures for `Cn1ccn(-c2ccc(OC[C@H]3CC[C@H](C(=O)N4OCC[C@H]4c4cc(F)cc(C#N)c4)CC3)c(F)c2)c1=O` [Compound 78, trans-3-fluoro-5-((S)-2-(4-((2-fluoro-4-(3-methyl-2-oxo-2,3-dihydro-1H-imidazol-1-yl)phenoxy)methyl)cyclohexane-1-carbonyl)isoxazolidin-3-yl)benzonitrile]: 43 nM and 9 nM.
The matching figures for `CC1(C)OC(=O)N(c2ccc(F)c(OC[C@H]3CC[C@H](C(=O)N4OCC[C@H]4c4cc(F)cc(C#N)c4)CC3)c2)C1=O` [Compound 79, trans-3-((S)-2-(4-((5-(5,5-dimethyl-2,4-dioxooxazolidin-3-yl)-2-fluorophenoxy)methyl)cyclohexane-1-carbonyl)isoxazolidin-3-yl)-5-fluorobenzonitrile]: 20 nM and 9 nM.
The matching figures for `CN1CC(=O)N(c2ccc(Cl)c(OC[C@H]3CC[C@H](C(=O)N4OCC[C@H]4c4cc(F)cc(C#N)c4)CC3)c2)C1=O` [Compound 80, trans-3-((S)-2-(4-((2-chloro-5-(3-methyl-2,5-dioxoimidazolidin-1-yl)phenoxy)methyl)cyclohexane-1-carbonyl)isoxazolidin-3-yl)-5-fluorobenzonitrile]: 164 nM and 123 nM.
Take `CC1(C)OC(=O)N(c2ccc(F)c(O[C@H]3CC[C@@H](C(=O)N4OCC[C@H]4c4cc(F)cc(C#N)c4)CC3)c2)C1=O` [Compound 81, cis-3-((S)-2-(4-(5-(5,5-dimethyl-2,4-dioxooxazolidin-3-yl)-2-fluorophenoxy)cyclohexane-1-carbonyl)isoxazolidin-3-yl)-5-fluorobenzonitrile]: the figures for the IC50 (in test [1]; in the test on U937 cells) were 92 nM and 855 nM, respectively.
On the same counts, the results for `N#Cc1cc(F)cc([C@@H]2CCON2C(=O)[C@H]2CC[C@@H](Oc3ccc(F)c(C#N)c3)CC2)c1` [Compound 82, cis-5-((4-((S)-3-(3-cyano-5-fluorophenyl)isoxazolidine-2-carbonyl)cyclohexyl)oxy)-2-fluorobenzonitrile] are 44 nM and 385 nM.
The matching figures for `N#Cc1cc(F)cc(OC[C@H]2CC[C@H](C(=O)N3OCC[C@H]3c3cncc(C#N)c3)CC2)c1` [Compound 83, trans-5-((S)-2-(4-((3-cyano-5-fluorophenoxy)methyl)cyclohexane-1-carbonyl)isoxazolidin-3-yl)nicotinonitrile]: 34 nM and 23 nM.
On the same counts, the results for `O=C([C@H]1C[C@H](n2cnc3cc(F)ccc32)C1)N1OCC[C@H]1c1cccc(F)c1` [Compound 84, trans-(3-(5-fluoro-1H-benzo[d]imidazol-1-yl)cyclobutyl)((S)-3-(3-fluorophenyl)isoxazolidin-2-yl)methanone] are 257 nM and 428 nM.
With `Cc1ccc(OC[C@H]2CC[C@H](C(=O)N3OCC[C@H]3c3cc(F)cc(C#N)c3)CC2)cc1C(N)=O` [Compound 85, trans-5-((4-((S)-3-(3-cyano-5-fluorophenyl)isoxazolidine-2-carbonyl)cyclohexyl)methoxy)-2-methylbenzamide], the 50% inhibitory concentration (IC50) in test [1] came to 28 nM; in the test with U937 cells, 27 nM.
The matching figures for `Cc1ccc(OC[C@H]2CC[C@H](C(=O)N3OCC[C@H]3c3cc(F)cc(F)c3)CC2)cc1C(N)=O` [Compound 86, trans-5-((4-((S)-3-(3,5-difluorophenyl)isoxazolidine-2-carbonyl)cyclohexyl)methoxy)-2-methylbenzamide]: 22 nM and 10 nM.
In the case of `O=C([C@H]1C[C@@H](n2cnc3ccc(F)cc32)C1)N1OCC[C@H]1c1cc(F)cc(F)c1` [Compound 87, cis-((S)-3-(3,5-difluorophenyl)isoxazolidin-2-yl)(3-(6-fluoro-1H-benzo[d]imidazol-1-yl)cyclobutyl)methanone], the IC50 in test [1] is 89 nM; with U937 cells, 551 nM.
With `CN1CC(=O)N(c2ccc(Cl)c(OC[C@H]3CC[C@H](C(=O)N4OCC[C@H]4c4cncc(C#N)c4)CC3)c2)C1=O` [Compound 88, trans-5-((S)-2-(4-((2-chloro-5-(3-methyl-2,5-dioxoimidazolidin-1-yl)phenoxy)methyl)cyclohexane-1-carbonyl)isoxazolidin-3-yl)nicotinonitrile], the results for the IC50 (in test [1]; in the test with U937 cells) were 47 nM and 458 nM, respectively.
The matching figures for `Cn1ccn(-c2ccc(OC[C@H]3CC[C@H](C(=O)N4OCC[C@H]4c4cncc(C#N)c4)CC3)c(F)c2)c1=O` [Compound 89, trans-5-((S)-2-(4-((2-fluoro-4-(3-methyl-2-oxo-2,3-dihydro-1H-imidazol-1-yl)phenoxy)methyl)cyclohexane-1-carbonyl)isoxazolidin-3-yl)nicotinonitrile]: 18 nM and 13 nM.
On the same counts, the results for `Cc1cc(C)n(-c2ccc(OC[C@H]3CC[C@H](C(=O)N4OCC[C@H]4c4cncc(C#N)c4)CC3)c(F)c2)n1` [Compound 90, trans-5-((S)-2-(4-((4-(3,5-dimethyl-1H-pyrazol-1-yl)-2-fluorophenoxy)methyl)cyclohexane-1-carbonyl)isoxazolidin-3-yl)nicotinonitrile] are 21 nM and 23 nM.
On to `N#Cc1cc(F)cc([C@@H]2CCON2C(=O)[C@H]2CC[C@H](COc3cc(C#N)ccn3)CC2)c1` [Compound 91, trans-2-[[4-[(3S)-3-(3-cyano-5-fluoro-phenyl)isoxazolidine-2-carbonyl]cyclohexyl]methoxy]pyridine-4-carbonitrile], for which the IC50 came to 14 nM in test [1] and 39 nM in the test on U937 cells.
On the same counts, the results for `CC1(C)OC(=O)N(c2ccc(F)c(OC[C@H]3CC[C@H](C(=O)N4OCC[C@H]4c4cncc(C#N)c4)CC3)c2)C1=O` [Compound 92, trans-5-((S)-2-(4-((5-(5,5-dimethyl-2,4-dioxooxazolidin-3-yl)-2-fluorophenoxy)methyl)cyclohexane-1-carbonyl)isoxazolidin-3-yl)nicotinonitrile] are 42 nM and 229 nM.
On to `N#Cc1cc(F)cc([C@@H]2CCON2C(=O)[C@H]2CC[C@H](COc3ccnc(C#N)c3)CC2)c1` [Compound 93, trans-4-[[4-[(3S)-3-(3-cyano-5-fluoro-phenyl)isoxazolidine-2-carbonyl]cyclohexyl]methoxy]pyridine-2-carbonitrile], for which the values for the half-inhibitory concentration (IC50) (in test [1]; with U937 cells) were 18 nM and 13 nM, respectively.
The matching figures for `N#Cc1cncc([C@@H]2CCON2C(=O)[C@H]2CC[C@H](COc3cc(C#N)ccn3)CC2)c1` [Compound 94, trans-5-((S)-2-(4-(((4-cyanopyridin-2-yl)oxy)methyl)cyclohexane-1-carbonyl)isoxazolidin-3-yl)nicotinonitrile]: 58 nM and 137 nM.
